The record followed here is BindingDB's records for doi:10.1016/j.bmcl.2012.06.023 (University of Siena, 2012).

Subtilisin-like protease 1, sequence (O61142 220-690 limits assumed): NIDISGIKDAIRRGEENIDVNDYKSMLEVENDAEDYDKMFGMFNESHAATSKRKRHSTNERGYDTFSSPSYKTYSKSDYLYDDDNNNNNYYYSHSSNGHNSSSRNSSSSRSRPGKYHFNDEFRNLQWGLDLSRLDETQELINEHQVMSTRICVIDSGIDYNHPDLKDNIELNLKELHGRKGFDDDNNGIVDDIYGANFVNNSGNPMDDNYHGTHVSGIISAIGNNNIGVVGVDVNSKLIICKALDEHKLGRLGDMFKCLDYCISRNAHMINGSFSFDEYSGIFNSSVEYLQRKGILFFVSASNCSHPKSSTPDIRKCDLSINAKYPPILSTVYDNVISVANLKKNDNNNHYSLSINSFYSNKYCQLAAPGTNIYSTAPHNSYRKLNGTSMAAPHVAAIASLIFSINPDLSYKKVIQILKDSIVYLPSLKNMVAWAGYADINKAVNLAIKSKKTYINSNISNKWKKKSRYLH

The assay addresses Subtilisin-like protease 1 (Plasmodium falciparum, UniProt O61142). Description: Inhibition of Plasmodium falciparum SUB1 by fluorimetric assay.
Take `Cc1cc(N=NCc2ccccc2[N+](=O)[O-])c2cc3c(cc2n1)OCO3`: the IC50 came to 40 µM.

On to `Cc1cc(N=NCc2ccc(C#N)cc2)c2cc3c(cc2n1)OCO3`, for which the IC50 was determined as 40 µM.

`Cc1cc(N=NCc2ccc([N+](=O)[O-])cc2)c2cc3c(cc2n1)OCO3`: 20 µM corresponded to half-maximal inhibition (IC50).

Take `O=[N+]([O-])c1ccc(CN=Nc2c3c(nc4ccccc24)CCCC3)cc1`: the IC50 is > 50 µM.

Turning to `O=[N+]([O-])c1ccc(CN=Nc2nc3ccccc3[nH]2)cc1`, the IC50 is > 50 µM.

As to `COc1ccc2nc(C)cc(N=NCc3ccc([N+](=O)[O-])cc3)c2c1` [TCMDC-123970], inhibition was half-maximal at 20 µM (IC50). That is a double-digit micromolar value.
